In US12115182B2, “Adenosine A2A agonists for the treatment of cytokine storm syndrome” (priority 2021, dated 2024):

How the values were obtained:
[1] = test system: circulating iNKT cells; assay: Flow cytometry of CD69 on circulating iNKT cells of COVID-19 patients during regadenoson infusion; format: in vivo, human
[2] = Plasma levels of regadenoson in lung transplant recipients (LC-MS/MS); format: in vivo, human
Procedure: The peripheral blood samples for regadenoson measurement were collected at the following timepoints: 1) Prior to 1st lung reperfusion; 2) 1 hour post 1st lung perfusion; 3) 6 hours post infusion start; 4) 12 hours post infusion start; 5) 24 hours post infusion start. The blood samples were centrifuged, and the plasma samples were collected and stored at −80° C. The levels of regadenoson were determined via liquid chromatography-mass spectrometry with an improved d protocol based on our previous publication (LAU et al., J Heart Lung Transplant, (2020), 39:563-570) at The Mass Spectrometry Center at the School of Pharmacy, University of Maryland, Baltimore (detailed in supplemental methods).
Chemicals and Reagents. Regadenoson (purity 99.83%) was purchased from Selleckchem (Houston, TX, USA) and Regadenoson-d3 ((purity 99.68%) used as internal standard (IS) was obtained from Toronto Research Chemicals, (North York, ON, CT). Optima LC/MS grade water (H2O), methanol, and formic acid (FA) were purchased from Fisher Scientific (Pittsburgh, PA, USA).
Calibration Standards. 1 mg/ml stock solutions of Regadenoson and Regadenoson-d3 were prepared in Dimethyl sulfoxide (DMSO) and further working solutions to spike in plasma were prepared in methanol and water (70:30, v/v). Calibration standards (STD) in plasma ranged from 0.05 ng/ml to 50 ng/ml (8 points: 0.05, 0.1, 1, 5, 20, 30, 40, and 50 ng/ml). Quality control (QC) samples at 3 concentration levels (0.15 ng/ml, LQC; 25 ng/ml, MQC; and 45 ng/ml, HQC) were also prepared in plasma. Internal standard solution (Regadenoson-d3; 250 ng/ml) was prepared in methanol and water (70:30, v/v).
Sample Preparation. 50 μL of plasma sample (STD/QC/test sample) was added into a 2 ml centrifuge tube containing 20 μL of IS solution (250 ng/ml) and mixed well. Next, 500 μL of acetonitrile was added, shaken for 3 min at 2100 rpm, and centrifuged for 10 min at 15000 rpm. 400 μL of supernatant was transferred to glass tube and dried under a steady stream of nitrogen at 35° C. The sample was re-suspended in 100 μL of 0.1% formic acid in H2O: 0.1% formic acid in methanol (1:1 v/v) and injected (3 μl) into LC-MS/MS system.
Liquid Chromatography Tandem Mass Spectrometry (LC-MS/MS). LC-MS/MS analysis was performed on a TSO Altis Triple Stage Quadrupole Mass Spectrometer coupled to an Ultimate 3000 RS Liquid Chromatogram system (Thermo Scientific, San Jose, CA). The LC separation was performed on a BEH C18 column (2.1×50 mm, 1.7 μm) (Waters Corporations, Milford, MA) operated at 30° C. Mobile phase solvent A and B consisted of 0.1% FA in H2O and 0.1% FA in methanol, respectively. The gradient program started with 35% B; followed by a linear gradient to 50% Bin 0.7 min; maintained 50% B until 1.5 min; followed by a linear gradient back to 35% B in 2 min and maintained until 3 min. The flow rate was set at 0.22 ml/min. The retention time of Regadenoson and the IS was 1.09 min, and the total run time was 3 min.
Detection was performed in the positive-ion mode using electrospray ionization (ESI). Source parameters were as follows: spray voltage, 3500; Ion transfer tube temperature, 350; vaporizer temperature, 300; sheath gas pressure, 50; auxiliary gas pressure, 10; and sweet gas, 1. The compound parameters: collision energy (CE), and RF lens were 35 and 77 V, respectively for Regadenoson and the IS. Selected reaction monitoring (SRM) was used for mass detection with the following transitions: Regadenoson (m/z 391.1-259.2; quant) and (m/z 391.1-228.1; qual), Regadenoson-d3 (m/z 394.0-262.2; quant) and (m/z 394.0-228.2; qual). Data collection and analysis was performed by Xcalibur V 2.1 (Thermo Scientific, San Jose, CA).
Analytical parameters: The linear range is 0.05-50 ng/mL in human plasma. Samples that exceeded the upper limit of quantification were diluted 2 or 4 fold and reinjected.

[3] = test system: lung transplant recipients; assay: Regadenoson infusion in lung transplant recipients: clinical outcomes, hemodynamics, safety; format: in vivo
Procedure: The rational for dose selection was published in our previous publication (LAU et al., J Heart Lung Transplant, (2020), 39:563-570. We enrolled 4 additional lung transplantation patients that were treated with regadenoson at 1.44 ug/kg/hour for 12 hours. Our previous publication, infusion of regadenoson (1.44 ug/kg/hour for 12 hours) was safe in 10 lung transplantation patients. In the lung transplantation population, the median peak plasma levels of regadenoson infused were 1.68 ng/ml (range 1.2 to 1.9 ng/ml). Based on this preliminary result, we modified our protocol to a high dose infusion at the 2.88 ug/kg/hour for 12 hours in the last three lung transplantation recipients. FDA, NIH/NHLBI designated DSMB and institutional IRB approved our modification. The regadenoson infusion started at the time of skin incision, continued throughout the transplant procedure and into the immediate postoperative period for a total duration of 12 hours. Enrollment of bilateral lung transplant control patients
Primary end-points included dose-limiting toxicities and 30-day mortality. Secondary outcomes included PGD scores evaluated at 24, 48, and 72 hours, ICU length of stay, hospital length of stay, need for post-transplant extracorporeal membrane oxygenation, duration of mechanical ventilation post-operatively, and 12-month survival. Clinical parameters including blood pressure, heart rate, mean arterial pressure, pulmonary arterial pressure, were monitored and collected. Continuous variables are listed as mean and standard deviation, whereas categorical variables are presented as counts.
Statistical differences of cytokine/chemokines, heart rates and blood pressures between groups were determined by two-way ANOVA followed by Tukey's multiple comparison test (GraphPad Prism 9.0). The PGD scores were analyzed by chi-squared test. The intubation times and hospital LOS, ICU LOS were analyzed by ANOVA of log and Kruskal-Wallis. Data was reported as means±SD. P value equal or less than 0.05 was considered significant.

[4] = cited from earlier work

CNC(=O)c1cnn(-c2nc(N)c3ncn([C@@H]4O[C@H](CO)[C@@H](O)[C@H]4O)c3n2)c1 [Regadenoson]
expression of activation marker CD69 on circulating iNKT cells ([1]; 4 hours into the maintenance dose): significantly reduced
expression of activation marker CD69 on circulating iNKT cells ([1]; after the 30 min loading dose): significantly reduced
reduction of the fraction of circulating iNKT cells that are CD69+ ([1]; within 30 minutes): 50%
median peak plasma levels of regadenoson ([2]; 1.44 ug/kg/hour for 12 hours, preliminary result before dose alteration): 1.68 ng/mL
levels of regadenoson in blood ([2]; after 24 hours post regadenoson infusion): minimal
time of peak drug level post infusion start ([2]; high dose group, 2.88 ug/kg/hr for 12 hours): 12 h
median peak plasma levels of regadenoson ([2]; high dose, 2.88 ug/kg/hr): 14.34 ng/mL
time of peak drug level post infusion start ([2]; low dose group, 1.44 ug/kg/hr for 12 hours): 6 h
median peak plasma levels of regadenoson ([2]; low dose, 1.44 ug/kg/hr): 1.30 ng/mL
PGD scores at 24 hours post transplantation ([3]; 1.44 ug/kg/h vs control patients, p=0.024): significantly improved
drug related serious adverse events or dose limiting toxicities ([3]; 14 low dose-treated (1.44 ug/kg/h) and 3 high dose-treated (2.88 ug/kg/h) recipients): no drug related serious adverse events or dose limiting toxicities were observed
PGD scores at 24 hours, 48 and 72 hours ([3]; both 1.44 and 2.88 ug/kg/h groups vs control patients): also improved when compared with control patients but did not reach significance
blood pressure, heart rate, mean arterial pressure and pulmonary arterial pressure ([3]; during regadenoson infusion for 12 hours, P>0.05): did not significantly alter
seizure ([3]; one subject, may not directly relate to regadenoson infusion): A seizure was observed at the 36 hours post regadenoson infusion in one of the subjects
hospital length of stay (LOS) and ICU LOS ([3]; vs control patients): reduced, but not significantly altered
intubation time ([3]; vs control patients): trended to decrease
peak plasma level ([4]; 400 μg bolus over 10 seconds for myocardial perfusion imaging): about 15 ng/ml
steady-state plasma level ([4]; after infusion for 6 hours of 1.44 μg/kg/h, prior sickle cell disease trial): about 2 ng/ml
terminal half-life ([4]; in vivo): 2 h
safety / side effects ([4]; infusion at 1.44 μg/kg/h for 24-48 h, sickle cell crisis and lung transplantation): safe and devoid of side effects
